Laboratory results published in patent US7799799B2, “Indolizine derivatives, method for preparing same, and therapeutic compositions comprising same” (Sanofi-Aventis, priority 2005, dated 2010).
Converted amounts (≈) assume the structure as drawn. Where a name gives a salt, the structure may show the parent alone.

Key:
[1] = at a pH of 3; cited from earlier work
[2] = Solubility test at pH=4 from phosphate buffer pH 6 0.1M, by HPLC; format: physicochemical; settings: for solubility at 5 min: aqueous buffer, thermodynamic from solid, phosphate buffer pH 6 0.1M, HPLC, first figure of the S/pH cell, the pH of the sample is the second; for pH (of the solubility sample): second figure of the S/pH cell, pH noted for the solubility sample
Experimental: The results for solubility, S, and pH are shown in the table below and are expressed in mg/ml.
A phosphate buffer, pH6, 0.1M, was prepared by adding 6.15 ml of 0.1M Na2HPO4 to 43.85 ml of 0.1M NaH2PO4. The solution was made up to 100 ml with filtered water using a Millipore system (trade mark).
Reference (Test Product in a Concentration in which the Latter is Soluble and which Acts as an Internal Reference)
About 0.2 mg (in a boat) was weighed out exactly and diluted in 1 ml of H2O/CH3CN: (50:50), i.e. 0.2 mg/ml, then the sample was subjected to ultrasound for 5 minutes.
About 4 mg (in a boat) was weighed out exactly and diluted in 400 μl (i.e. 10 mg/ml) of pH6 phosphate buffer (0.1M), then the sample was subjected to ultrasound for 5 minutes.
The pH was noted and if the pH was below 4, 1 μl of NaOH 1N was added (from 1 μl in 1 μl) until the pH was more than 4, then the pH was noted again. The solution (0.45 μm) was filtered then if necessary diluted with the phosphate buffer pH6. (If the product re-precipitated after diluting, the diluted sample was ignored, the mother solution was used and the solubility was determined at a wavelength other than λmax, to avoid saturating the signal.
The solubility of the compound was then determined by HPLC under the following conditions:
Instrument: Agilent 1100 chromatograph
Column temperature: 30° C. Flow rate: 0.8 ml/min Detection: λ=230 nm Injection volume: 5 μl

solubility at 5 min [2] [µg/mL]	pH (of the solubility sample) [2]	Structure (SMILES)	solubility in water S [1] [µg/mL]
–	–	CCCCc1oc2ccc(NS(C)(=O)=O)cc2c1C(=O)c1ccc(OCCCN(CCCC)CCCC)cc1 [Dronedarone]	247 (≈ 444 µM)
1540	7.01	CCCN(CC)CCCCc1ccc(C(=O)c2c(C)cc3ccccn23)cc1 [compound 28, (4-{4-[ethyl(propyl)amino]butyl}phenyl)(2-methylindolizin-3-yl)methanone hydrochloride]	–
> 10000	5.94	CCCc1cc2ccccn2c1C(=O)c1ccc(CCCN(CC)CCC)cc1 [compound 29, (4-{3-[ethyl(propyl)amino]propyl}phenyl)(2-propylindolizin-3-yl)methanone hydrochloride]	–
> 10000	5.85	CCCCc1cc2ccccn2c1C(=O)c1ccc(CCCCN(CC)CCC)cc1 [compound 30, (2-butylindolizin-3-yl)(4-{4-[ethyl(propyl)amino]butyl}phenyl)methanone hydrochloride]	–
> 10000	4.05	CCCN(CC)CCCCc1ccc(C(=O)c2c(CC)cc3ccccn23)cc1 [compound 31, (2-ethylindolizin-3-yl)(4-{4-[ethyl(propyl)amino]butyl}phenyl)methanone oxalate]	–
5640	5.60	CCCc1cc2ccccn2c1C(=O)c1ccc(CCCCN(CC)CCC)cc1 [compound 32, (4-{4-[ethyl(propyl)amino]butyl}phenyl)(2-propylindolizin-3-yl)methanone hydrochloride]	–
3880	5.36	CCCCc1cc2ccccn2c1C(=O)c1ccc(CCCN(CCC)CCCC)cc1 [compound 33, (2-butylindolizin-3-yl)(4-{3-[butyl(propyl)amino]propyl}phenyl)methanone oxalate]	–
4400	4.75	CCCCc1cc2ccccn2c1C(=O)c1ccc(CCCN(CCC)CC2CC2)cc1 [compound 35, (2-butylindolizin-3-yl)(4-{3-[(cyclopropylmethyl)(propyl)amino]propyl}phenyl)methanone hydrochloride]	–
2240	6.3	CCCNCCCCc1ccc(C(=O)c2c(CCC)cc3ccccn23)cc1.Cl [compound 36, {4-[4-(propylamino)butyl]phenyl}(2-propylindolizin-3-yl)methanone hydrochloride]	–
1780	7.14	CCCCc1cc2ccccn2c1C(=O)c1ccc(CCCNCCC)cc1.Cl [compound 37, (2-butylindolizin-3-yl){4-[3-(propylamino)propyl]phenyl}methanone hydrochloride]	–
> 10000	4.22	CCCCc1cc2ccccn2c1C(=O)c1ccc(CCCN2C[C@@H](C)N[C@@H](C)C2)cc1 [compound 39, (2-butylindolizin-3-yl)(4-{3-[(3R,5S)-3,5-dimethylpiperazin-1-yl]propyl}phenyl)methanone hydrochloride]	–
9930	4.3	CCCCc1cc2ccccn2c1C(=O)c1ccc(CCCN2C[C@@H](C)N(C)[C@@H](C)C2)cc1 [compound 40, (2-butylindolizin-3-yl)(4-{3-[(3R,5S)-3,4,5-trimethylpiperazin-1-yl]propyl}phenyl)methanone hydrochloride]	–
7190	3.95	CCCCc1cc2ccccn2c1C(=O)c1ccc(CCCN(CCOC)CCOC)cc1 [compound 41, (4-{3-[bis(2-methoxyethyl)amino]propyl}phenyl)(2-butylindolizin-3-yl)methanone oxalate]	–
1660	5.18	CCCCc1cc2ccccn2c1C(=O)c1ccc(CCCN2CCCCC2)cc1 [compound 42, (2-butylindolizin-3-yl)[4-(3-piperidin-1-ylpropyl)phenyl]methanone oxalate]	–
4460	5.65	CCCCc1cc2ccc(C)cn2c1C(=O)c1ccc(CCCN(CCC)CCC)cc1 [compound 43, (2-butyl-6-methylindolizin-3-yl){4-[3-(dipropylamino)propyl]phenyl}methanone hydrochloride]	–
> 10000	6.05	CCCCc1cc2ccc(CC)cn2c1C(=O)c1ccc(CCCN(CCC)CCC)cc1 [compound 44, (2-butyl-6-ethylindolizin-3-yl){4-[3-(dipropylamino)propyl]phenyl}methanone hydrochloride]	–

Structure (SMILES)	solubility at 5 min [2] [µg/mL]	pH (of the solubility sample) [2]	solubility in water S [1] [µg/mL]
CCCCc1cc2ccccn2c1C(=O)c1ccc(CCCN(C)C)cc1.Cl [compound 38, (2-butylindolizin-3-yl){4-[3-(dimethylamino)propyl]phenyl}methanone hydrochloride]	1420	–	–
